Values quoted from earlier work in patent publication US20120190646A1, “Compositions Comprising Thalidomide and Artemisinin for the Treatment of Cancer” (priority 2009, published 2012).

Details: multiple myeloma patients; thalidomide administered without prophylaxis; 'as high as'

VTE rates: ≤ 26%
SMILES: O=C1CCC(N2C(=O)c3ccccc3C2=O)C(=O)N1 (racemic) [thalidomide, 2-(2,6-dioxo-3-piperidinyl)-1H-isoindole-1,3(2H)-dione]
